Measurements taken from patent US20200291018A1, “TAM KINASE INHIBITORS” (SYROS PHARMACEUTICALS, INC., priority 2017, published 2020).

Experiments:
[1] = target: T1, AXL (Homo sapiens, UniProt P30530); test: TR-FRET kinase activity assay, AXL; type: biochemical; details: ATP at Km, 60 minutes
T1 sequence (P30530 26-894): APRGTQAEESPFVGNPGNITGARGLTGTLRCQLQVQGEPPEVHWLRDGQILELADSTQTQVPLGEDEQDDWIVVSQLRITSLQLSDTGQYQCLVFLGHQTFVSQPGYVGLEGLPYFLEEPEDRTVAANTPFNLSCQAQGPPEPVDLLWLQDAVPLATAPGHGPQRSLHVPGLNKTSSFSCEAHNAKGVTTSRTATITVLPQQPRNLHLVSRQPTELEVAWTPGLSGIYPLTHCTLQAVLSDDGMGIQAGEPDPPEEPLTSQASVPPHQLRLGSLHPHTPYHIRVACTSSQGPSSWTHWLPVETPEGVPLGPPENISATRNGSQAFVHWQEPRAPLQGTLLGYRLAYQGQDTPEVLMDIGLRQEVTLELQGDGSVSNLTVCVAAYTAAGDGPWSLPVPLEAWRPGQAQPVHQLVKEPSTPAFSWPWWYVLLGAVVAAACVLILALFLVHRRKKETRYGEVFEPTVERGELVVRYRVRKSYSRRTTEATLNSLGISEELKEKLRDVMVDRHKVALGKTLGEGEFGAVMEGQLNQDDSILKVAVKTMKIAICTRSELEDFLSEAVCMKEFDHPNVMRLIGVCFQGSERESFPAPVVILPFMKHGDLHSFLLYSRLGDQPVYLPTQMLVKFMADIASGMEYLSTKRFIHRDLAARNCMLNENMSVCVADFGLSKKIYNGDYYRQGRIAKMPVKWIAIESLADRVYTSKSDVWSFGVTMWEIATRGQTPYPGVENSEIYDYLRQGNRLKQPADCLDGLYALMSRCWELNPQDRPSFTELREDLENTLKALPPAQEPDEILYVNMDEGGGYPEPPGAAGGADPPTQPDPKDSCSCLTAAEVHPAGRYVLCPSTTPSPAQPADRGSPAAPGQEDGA
In short: (§1)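 Buffer 50 mM HEPES pH 7.5/10 mM MgCl2/1 mM EGTA/0.01% Brij 35/1 mM DTT, RT. Km ATP per kinase, labeled peptide, 60 min; 12.5 mM EDTA stop; Eu-Ab 30 min dark; TR-FRET → IC50.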

[2] = target: T2, MERTK (Homo sapiens, UniProt Q12866); test: TR-FRET kinase activity assay, MERTK; type: biochemical; details: for IC50: TR-FRET activity assay, ATP at Km, 60 minutes, read-out: Mer IC50; for Mer/Flt3 ratio (FLT3 IC50/Mer IC50): ratio calculated as FLT3 IC50/Mer IC50
T2 sequence (Q12866 21-999): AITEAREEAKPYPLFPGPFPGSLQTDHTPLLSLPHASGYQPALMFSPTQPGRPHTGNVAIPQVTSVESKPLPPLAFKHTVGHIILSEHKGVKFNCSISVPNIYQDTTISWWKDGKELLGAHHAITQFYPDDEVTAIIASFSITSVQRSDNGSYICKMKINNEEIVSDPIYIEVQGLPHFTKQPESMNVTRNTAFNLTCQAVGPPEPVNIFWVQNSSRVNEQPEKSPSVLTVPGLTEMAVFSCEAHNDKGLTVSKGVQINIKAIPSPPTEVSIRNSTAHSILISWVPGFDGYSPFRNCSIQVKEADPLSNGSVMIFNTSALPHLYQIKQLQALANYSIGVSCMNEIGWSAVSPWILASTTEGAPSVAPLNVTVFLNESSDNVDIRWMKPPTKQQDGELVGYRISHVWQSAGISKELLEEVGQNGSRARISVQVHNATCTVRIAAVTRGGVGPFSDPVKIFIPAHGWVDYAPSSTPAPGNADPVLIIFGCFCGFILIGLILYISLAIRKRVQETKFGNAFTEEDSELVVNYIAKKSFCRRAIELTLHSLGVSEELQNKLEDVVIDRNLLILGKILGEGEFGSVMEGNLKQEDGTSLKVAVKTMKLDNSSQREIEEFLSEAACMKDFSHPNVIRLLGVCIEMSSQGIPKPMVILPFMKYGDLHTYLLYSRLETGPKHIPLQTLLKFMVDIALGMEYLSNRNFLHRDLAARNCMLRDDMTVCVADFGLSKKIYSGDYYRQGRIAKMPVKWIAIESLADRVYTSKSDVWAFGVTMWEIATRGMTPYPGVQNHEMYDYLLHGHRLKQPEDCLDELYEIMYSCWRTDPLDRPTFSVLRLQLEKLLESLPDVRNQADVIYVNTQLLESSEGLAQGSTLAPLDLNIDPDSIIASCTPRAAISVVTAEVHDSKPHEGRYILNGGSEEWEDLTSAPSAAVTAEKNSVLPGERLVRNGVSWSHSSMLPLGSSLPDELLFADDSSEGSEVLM
In short: as §1

IC50 [1] [nM] | IC50 [2] [nM] | Mer/Flt3 ratio (FLT3 IC50/Mer IC50) [2] | Structure (SMILES)
100 to 1000 | ≤ 100 | +++ (a ratio of >100) | C[C@@H](CC(F)(F)F)Nc1ncc2c(OC3CCOCC3)ncc([C@H]3CC[C@H](O)CC3)c2n1 [Compound 305]
100 to 1000 | ≤ 100 | +++ (a ratio of >100) | CC[C@H](C)Nc1ncc2c(OC3CCN(c4ncccn4)CC3)ncc([C@H]3CC[C@H](O)CC3)c2n1 [Compound 306]
1000 to 10000 | ≤ 100 | +++ (a ratio of >100) | COC[C@H](C)Nc1ncc2c(OC3CCOCC3)ncc(-c3cccc(S(=O)(=O)N(C)C)c3)c2n1 [Compound 307, (S)-3-(2-((1-methoxypropan-2-yl)amino)-5-((tetrahydro-2H-pyran-4-yl)oxy)pyrido[4,3-d]pyrimidin-8-yl)-N,N-dimethylbenzenesulfonamide]
1000 to 10000 | ≤ 100 | +++ (a ratio of >100) | COC[C@H](C)Nc1ncc2c(O[C@@H]3CCNCC3(F)F)ncc([C@H]3CC[C@H](O)CC3)c2n1 [Compound 308]
1000 to 10000 | ≤ 100 | +++ (a ratio of >100) | COC[C@H](C)Nc1ncc2c(OC3CCOCC3)ncc(-c3ccc(N)cc3)c2n1 [Compound 309]
≤ 100 | ≤ 100 | +++ (a ratio of >100) | COCCN1C(C)(C)CC(Oc2ncc([C@H]3CC[C@H](O)CC3)c3nc(N[C@@H](C)COC)ncc23)CC1(C)C [Compound 310]
100 to 1000 | ≤ 100 | +++ (a ratio of >100) | C[C@@H](CCF)Nc1ncc2c(OC3CCOCC3)ncc([C@H]3CC[C@H](O)CC3)c2n1 [Compound 311]
1000 to 10000 | ≤ 100 | +++ (a ratio of >100) | COCC[C@H](C)Nc1ncc2c(OC3CCOCC3)ncc([C@H]3CC[C@H](O)CC3)c2n1 [Compound 312]
100 to 1000 | ≤ 100 | +++ (a ratio of >100) | CC(C)Nc1ncc2c(OC3CCOCC3)ncc(-c3cccc(S(C)(=O)=O)c3)c2n1 [Compound 313]
1000 to 10000 | 100 to 1000 | ++ (a ratio of between 10 and 100) | COC[C@H](C)Nc1ncc2c(OC3CCOCC3)ncc(-c3cnn([C@@H]4CCN(C)C4)c3)c2n1 [Compound 314]
1000 to 10000 | ≤ 100 | +++ (a ratio of >100) | COC[C@H](C)Nc1ncc2c(OC3CCOCC3)ncc([C@H]3CC[C@H](NC(C)=O)CC3)c2n1 [Compound 315]
1000 to 10000 | ≤ 100 | +++ (a ratio of >100) | COC[C@H](C)Nc1ncc2c(OC3CCOCC3)ncc([C@H]3CC[C@H](NS(C)(=O)=O)CC3)c2n1 [Compound 316]
1000 to 10000 | ≤ 100 | +++ (a ratio of >100) | CNS(=O)(=O)N[C@H]1CC[C@H](c2cnc(OC3CCOCC3)c3cnc(N[C@@H](C)COC)nc32)CC1 [Compound 317]
100 to 1000 | ≤ 100 | +++ (a ratio of >100) | CC(C)Nc1ncc2c(OC3CCOCC3)ncc(-c3cccc(S(=O)(=O)C(C)C)c3)c2n1 [Compound 318]
100 to 1000 | ≤ 100 | +++ (a ratio of >100) | COC[C@H](C)Nc1ncc2c(OC3CCOCC3)ncc(-c3ccc(CC#N)cc3)c2n1 [Compound 319]
1000 to 10000 | 100 to 1000 | ++ (a ratio of between 10 and 100) | COC[C@H](C)Nc1ncc2c(OC3CCOCC3)ncc(-c3cccc(C#N)c3)c2n1 [Compound 320]

IC50 [1] [nM] | IC50 [2] [nM] | Mer/Flt3 ratio (FLT3 IC50/Mer IC50) [2] | Structure (SMILES)
≤ 100 | ≤ 100 | +++ (a ratio of >100) | CC[C@H](C)Nc1ncc2c(O[C@H]3CC[C@H](N)CC3)ncc([C@H]3CC[C@H](O)CC3)c2n1 [Compound 321]
100 to 1000 | ≤ 100 | +++ (a ratio of >100) | CN(C)S(=O)(=O)c1cccc(-c2cnc(OC3CCOCC3)c3cnc(NC4(C)CC4)nc23)c1 [Compound 322]
1000 to 10000 | ≤ 100 | +++ (a ratio of >100) | CN1C[C@H](Nc2ncc3c(OC4CCOCC4)ncc([C@H]4CC[C@H](O)CC4)c3n2)CC1=O [Compound 323]
1000 to 10000 | 100 to 1000 | ++ (a ratio of between 10 and 100) | CN1C[C@@H](Nc2ncc3c(OC4CCOCC4)ncc([C@H]4CC[C@H](O)CC4)c3n2)CC1=O [Compound 324]
1000 to 10000 | 100 to 1000 | ++ (a ratio of between 10 and 100) | COC[C@H](C)Nc1ncc2c(OC3CCOCC3)ncc(-c3cccc(C(N)=O)c3)c2n1 [Compound 325]
100 to 1000 | 100 to 1000 | NS (a ratio of ≤2.0) | COC[C@H](C)Nc1ncc2c(OC3CCOCC3)ncc([C@H]3CCCNC3)c2n1 [Compound 326]
1000 to 10000 | 100 to 1000 | ++ (a ratio of between 10 and 100) | COC[C@H](C)Nc1ncc2c(OC3CCOCC3)ncc([C@@H]3CCCNC3)c2n1 [Compound 327]
1000 to 10000 | 100 to 1000 | ++ (a ratio of between 10 and 100) | COC[C@H](C)Nc1ncc2c(OC3CCOCC3)ncc(-c3cccc(S(N)(=O)=O)c3)c2n1 [Compound 328]
100 to 1000 | ≤ 100 | +++ (a ratio of >100) | COC[C@H](C)Nc1ncc2c(OC3CCOCC3)ncc([C@H]3CC[C@@](O)(C(F)(F)F)CC3)c2n1 [Compound 329]
1000 to 10000 | 100 to 1000 | ++ (a ratio of between 10 and 100) | COC[C@H](C)Nc1ncc2c(OC3CCOCC3)ncc([C@H]3CC[C@](O)(C(F)(F)F)CC3)c2n1 [Compound 330]
≤ 100 | ≤ 100 | + (a ratio of >2.0 and <10) | N#Cc1ccc(Nc2ncc3c(OC4CCNCC4)ncc([C@H]4CC[C@H](O)CC4)c3n2)cc1 [Compound 331]
1000 to 10000 | 100 to 1000 | + (a ratio of >2.0 and <10) | COC[C@H](C)Nc1ncc2c(OC3CCOCC3)ncc([C@H]3CCCN(C)C3)c2n1 [Compound 332]
1000 to 10000 | 1000 to 10000 | + (a ratio of >2.0 and <10) | COC[C@H](C)Nc1ncc2c(OC3CCOCC3)ncc([C@@H]3CCCN(C)C3)c2n1 [Compound 333]
1000 to 10000 | ≤ 100 | ++ (a ratio of between 10 and 100) | COC[C@H](C)Nc1ncc2c(OC3CCOCC3)ncc(-c3cnn([C@H]4CCN(C)C4)c3)c2n1 [Compound 334]
1000 to 10000 | ≤ 100 | +++ (a ratio of >100) | COC[C@H](C)Nc1ncc2c(OC3CCOCC3)ncc(-c3ccc(CO)cc3)c2n1 [Compound 335]
